Results reported in patent US8609669B2, “Potassium channel modulators” (AbbVie Inc., priority 2010, dated 2013).

Target: T1, KCNQ 2/3 channels (HEK293 cells stably expressing human KCNQ2 and KCNQ3 subunits) (Homo sapiens, UniProt O43525+O43526)
T1 construct: expressed in transfected cells; host or cells: HEK293
Assay: KCNQ2/3 channel activation, thallium flux FLIPR assay (BTC-AM dye)
Type: cell-based
Settings: for Emax: HEK293, maximum response relative to response of retigabine at 10 μM (set at 100%), read-out: Max. %; for EC50: HEK293 cells expressing human KCNQ2 and KCNQ3, FLIPR thallium flux
Protocol: The following example describes the assay that can be used to identify compounds that activate KCNQ 2/3 channels.
HEK293 cells stably expressing human KCNQ2 and KCNQ3 subunits were seeded in 96-well, black-walled, clear-bottomed, poly-D-lysine coated plates (BD Biosciences, Bedford, Mass.) at a density of 1×10^5 cells per well 24 hours before the assay. On the assay day, BTC-AM dye (Invitrogen, Carlsbad, Calif.) was loaded into the cells by replacing the cell culture medium with 100 μL/well of 4 μM dye in DPBS. Dye loading was allowed to proceed for 2 hours at room temperature and then cells were washed twice in 100 μL/well of assay buffer (in mM: 10 HEPES pH 7.3, 5 glucose, 140 Na-gluconate, 2.5 K-gluconate, 3.6 Ca-gluconate, 2 MgSO4, 0.1 Ouabain) to remove unloaded dye. Cells were incubated in 50 μL of assay buffer before loading onto a FLIPR system (Molecular Devices, Sunnyvale, Calif.). Various concentrations of compounds to be assayed were added to the cells in 50 μL of assay buffer and incubated for 4 minutes. The fluorescence signal was initiated by adding 100 μL of assay buffer containing 6 mM TlNO3 and 10 mM K2SO4. Fluors were excited using the 488-nm line of an argon laser and emission was filtered using a 540±30 nm bandpass filter. Fluorescent signals were recorded for 3 minutes. Responses over baseline values were plotted versus concentrations of test compounds to obtain an EC50 value. The maximum response for each test compound was determined relative to the response produced at 10 μM by retigabine. The maximum response of retigabine at 10 μM was set at 100%.

Emax [%] | EC50 [nM] | SMILES
143 | 100 to 500 | O=C(CCC1CCCC1)Nc1nn2cccnc2c1-c1cccc(F)c1 [Example 135, 3-cyclopentyl-N-[3-(3-fluorophenyl)pyrazolo[1,5-a]pyrimidin-2-yl]propanamide]
178 | 100 to 500 | CC(C)(C)c1c(NC(=O)CCc2ccc(C(F)(F)F)cc2)nn2cccnc12 [Example 165, N-(3-tert-butylpyrazolo[1,5-a]pyrimidin-2-yl)-3-[4-(trifluoromethyl)phenyl]propanamide]
73 | 1000 to 10000 | Cc1cnc2c(-c3ccc(Cl)c(C)c3)c(NC(=O)CCc3ccccc3)nn2c1 [Example 44, N-[3-(4-chloro-3-methylphenyl)-6-methylpyrazolo[1,5-a]pyrimidin-2-yl]-3-phenylpropanamide]
171 | 100 to 500 | Cc1cnc2c(-c3ccc(F)cc3)c(NC(=O)Cc3ccccc3)nn2c1 [Example 25, N-[3-(4-fluorophenyl)-6-methylpyrazolo[1,5-a]pyrimidin-2-yl]-2-phenylacetamide]
164 | 1000 to 10000 | Cc1cnc2c(-c3ccccc3)c(NC(=O)CC(C)(C)C)nn2c1 [Example 92, 3,3-dimethyl-N-(6-methyl-3-phenylpyrazolo[1,5-a]pyrimidin-2-yl)butanamide]
158 | < 100 | Cc1cnc2c(C(C)(C)C)c(NC(=O)CCC3CCCCC3)nn2c1 [Example 178, N-(3-tert-butyl-6-methylpyrazolo[1,5-a]pyrimidin-2-yl)-3-cyclohexylpropanamide]
120 | 1000 to 10000 | Cc1ccnc2c(-c3ccc(F)cc3)c(NC(=O)Cc3ccc(F)cc3)nn12 [Example 28, 2-(4-fluorophenyl)-N-[3-(4-fluorophenyl)-7-methylpyrazolo[1,5-a]pyrimidin-2-yl]acetamide]
141 | 100 to 500 | Cc1cnc2c(-c3cccc(OC(F)(F)F)c3)c(NC(=O)CC(C)(C)C)nn2c1 [Example 3, 3,3-dimethyl-N-{6-methyl-3-[3-(trifluoromethoxy)phenyl]pyrazolo[1,5-a]pyrimidin-2-yl}butanamide]
65 | 1000 to 10000 | CC(C)(C)CC(=O)Nc1nn2cccnc2c1/C=C/c1ccc(C(F)(F)F)cc1 [Example 147, 3,3-dimethyl-N-(3-{(E)-2-[4-(trifluoromethyl)phenyl]vinyl}pyrazolo[1,5-a]pyrimidin-2-yl)butanamide]
23 | > 10000 | O=C(Cc1ccncc1)Nc1nn2cccnc2c1-c1ccc(Cl)cc1 [Example 102, N-[3-(4-chlorophenyl)pyrazolo[1,5-a]pyrimidin-2-yl]-2-(pyridin-4-yl)acetamide]
162 | 100 to 500 | Cc1cnc2c(-c3ccc(F)c(C)c3)c(NC(=O)CSC3CCCC3)nn2c1 [Example 143, 2-(cyclopentylthio)-N-[3-(4-fluoro-3-methylphenyl)-6-methylpyrazolo[1,5-a]pyrimidin-2-yl]acetamide]
128 | 500 to 1000 | O=C(CC12CC3CC(CC(C3)C1)C2)Nc1nn2cccnc2c1-c1ccc(Cl)cc1 [Example 162, 2-(adamantan-1-yl)-N-[3-(4-chlorophenyl)pyrazolo[1,5-a]pyrimidin-2-yl]acetamide]
64 | > 10000 | CC(C)(CC(=O)Nc1nn2cccnc2c1-c1ccc(Cl)cc1)c1ccccc1 [Example 117, N-[3-(4-chlorophenyl)pyrazolo[1,5-a]pyrimidin-2-yl]-3-methyl-3-phenylbutanamide]
166 | 100 to 500 | Cc1cc(C)n2nc(NC(=O)CCc3ccccc3)c(-c3ccc(F)cc3)c2n1 [Example 29, N-[3-(4-fluorophenyl)-5,7-dimethylpyrazolo[1,5-a]pyrimidin-2-yl]-3-phenylpropanamide]
50 | > 10000 | O=C(CCC1CCCC1)Nc1nn2cccnc2c1/C=C/c1ccc(C(F)(F)F)cc1 [Example 153, 3-cyclopentyl-N-(3-{(E)-2-[4-(trifluoromethyl)phenyl]vinyl}pyrazolo[1,5-a]pyrimidin-2-yl)propanamide]
